From PMC5559490, “Synthesis of Saccharumoside-B analogue with potential of antiproliferative and pro-apoptotic activities” (Scientific Reports, 2017) come the findings set out here.

This assay concerns Bax. Description: Quantification of Bax (immunometric assay), HL-60. Type of assay: cell-based, human. The conditions noted are these: HL-60 cells; compared to untreated cells. How it is done:
Bax protein concentration determination was carried out using the Human Bax Enzyme Immunometric Assay kit (Assay Designs, Ann Arbor, MI, USA). The lysate (sample) preparation was carried out according to the manual. Following centrifugation (16,000 g for 15 min), the cells were resuspended in Modified Cell lysis buffer 4 [0.5 μL/mL of Sigma Protease Inhibitor Cocktail and 1 mM phenylmethylsulfonyl fluoride (PMSF)]. Cell lysate (100 μL) (sample) was added into the wells coated with monoclonal antibody to human Bax-α in triplicate. The plate was tapped gently to mix the contents. The sample was incubated at room temperature on a plate shaker for 1 h. The wells were emptied and washed with 5X wash buffer. After the final wash, the plate was tapped gently on a lint free paper towel to remove any remaining wash buffer. The sample was incubated again for 1 h at room temperature on a plate shaker after the addition of 100 μL of specific antibody (biotinylated monoclonal antibody to Bax-α) into each well. The wells were washed again with 5X wash buffer and emptied. Next, 100 μL of blue conjugate (streptavidin conjugated to horseradish peroxidase) was added into each well. […] The optical densities were read at 450 and 570 nm using an ELISA reader. Bax protein concentration was determined from the standard protein graphic using the optical densities of the samples[32].

On to `COc1cc(CO)ccc1OC1OC(COC(=O)c2ccc(F)cc2)C(O)C(O)C1O` (stereo not shown) [Compound 9f, (6-(4-(hydroxymethyl)-2-methoxyphenoxy)-tetrahydro-3,4,5-trihydroxy-2H-pyran-2-yl)methyl 4-fluorobenzoate], for which the “effect on Bax protein levels” value was “increase in Bax protein levels”.
